Reference: US9494592B2, “Reaction-based fluorescent probes for sulfane sulfur and the application in bioimaging” (Washington State University, priority 2013, dated 2016)

Tests used:
[1] = excited at 330 nm in sodium phosphate buffer (0.1 M; pH 7.4); cited from earlier work
[2] = Fluorescence response of probes to Na2S2 (H2S2 equivalent) in PBS buffer with CTAB; conditions: probe 5.0 μM, Na2S2 25 μM, 50 mM PBS pH 7.4, 1 mM CTAB, rt
Description: (§1) The stock solution of SSP1 (1 mM) and SSP2 (1 mM) were prepared in CH3CN, respectively. The solutions of various testing species were prepared from Cysteine (Cys), GSH, Homocysteine (Hcy), Glutathione disulfide (GSSG), Na2S.9H2O, Na2S2O3, Na2SO3, Na2SO4, Na2S2 in 50 mM PBS buffer. The stock solution of Cetrimonium bromide (CTAB, 100 mM) and S8 (10 mM) were prepared in EtOH, respectively. The stock solution of Cys-polysulfide (10 mM) was prepared in CH3CN. All the test solution need to be freshly prepared.
Unless otherwise noted, all the measurements were carried out for 10 min at 25° C. in 50 mM PBS buffer (pH 7.4) with 1 mM CTAB according to the following procedure. In a test tube, 3.5 mL of 50 mM PBS buffer (pH 7.4) and 40 μL of the stock solution of CTAB were mixed, and then added 20 μL of the stock solution of SSP1 or SSP2. The resulting solution was mixed well, followed by addition of a requisite volume of testing species sample solution. The final volume of the reaction solution was adjusted to 4 mL with 50 mM PBS buffer (pH 7.4). After mixing and then standing for 10 min at room temperature, a 4-mL portion of the reaction solution was transferred into a 1-cm quartz cell to measure fluorescence with λex=380 nm (for SSP1) or 482 nm (SSP2). In the meantime, a blank solution containing no testing species sample was prepared and measured under the same conditions for comparison. […]

[3] = Fluorescence quantum yield determination; format: physicochemical; conditions: probe alone; aqueous PBS buffer solution (pH 7.4)
Description: The quantum yield was calculated according to the equation:^3 (Φsample=Φstandard*(Isample/Istandard)*(Astandard/Asample)*(nsample/nstandard)^2) Φ denotes the quantum yield; I denotes the area under the fluorescence band; A denotes the absorbance at the excitation wavelength; n denotes the refractive index of the solvent.
For quantum yield of SSP1, it was determined using 7-hydroxycoumarin as a standard by comparing the area under the corrected emission spectrum of the test sample with that of a solution of 7-hydroxycoumarin excited at 330 nm in sodium phosphate buffer (0.1 M; pH 7.4), which has a quantum efficiency of 0.76 according to the literature.
For quantum yield of SSP2, Quantum yield was determined using fluorescein as a standard by comparing the area under the corrected emission spectrum of the test sample with that of a solution of fluorescein excited at 490 nm in 0.1 N NaOH, which has a quantum efficiency of 0.85 according to the literature.

[4] = Selectivity: fluorescence response to sulfane sulfur compounds; conditions: sulfane sulfurs at 25 μM (H2S2, Cys-polysulfide, S8), probe 5.0 μM, 10 min, PBS pH 7.4, 1 mM CTAB
Description: FIGS. 5A-B Fluorescence enhancement (F/F0) of 5.0 μM probes in the presence of various reactive sulfur species. (FIG. 5A) data of SSP1 (Ex/Em=380/458 nm). (FIG. 5B) data of SSP2 (Ex/Em=482/518 nm). The reactions were carried out for 10 min at rt in PBS buffer (50 mM, pH 7.4) with 1 mM CTAB. (1) probe alone; (2) 1 mM Cys; (3) 1 mM GSH; (4) 1 mM Hcy; (5) 100 μM GSSG; (6) 100 μM Na2S; (7) 100 μM Na2S2O3; (8) 100 μM Na2SO3; (9) 100 μM Na2SO4; (10) 25 μM Na2S2; (11) 25 μM Cys-polysulfide; (12) 25 μM S8.
as §1, with “The stock solution of Cys-polysulfide (10 mM) was prepared in CH3CN. All the test solution need to be freshly prepared.” left out
Unless otherwise noted, all the measurements were carried out for 10 min at 25° C. in 50 mM PBS buffer (pH 7.4) with 1 mM CTAB according to the following procedure. […] After mixing and then standing for 10 min at room temperature, a 4-mL portion of the reaction solution was transferred into a 1-cm quartz cell to measure fluorescence with λex=380 nm (for SSP1) or 482 nm (SSP2). In the meantime, a blank solution containing no testing species sample was prepared and measured under the same conditions for comparison. […]

[5] = Effect of pH on probe fluorescence and stability; format: physicochemical; conditions: probe 5.0 μM, 50 mM PBS, 1 mM CTAB
Description: FIGS. 2A-B Fluorescence intensity changes of (FIG. 2A) 5.0 μM SSP1 and (FIG. 2B) 5.0 μM SSP2 at different pH values in the absence (▪) or presence (●) of Na2S2 (25 μM). The reactions were carried out for 10 min at 25° C. in 50 mM PBS buffer with 1 mM CTAB. Data (A) were acquired at 458 nm and excited at 380 nm. Data (B) were acquired at 518 nm and excited at 482 nm.
Unless otherwise noted, all the measurements were carried out for 10 min at 25° C. in 50 mM PBS buffer (pH 7.4) with 1 mM CTAB according to the following procedure. In a test tube, 3.5 mL of 50 mM PBS buffer (pH 7.4) and 40 μL of the stock solution of CTAB were mixed, and then added 20 μL of the stock solution of SSP1 or SSP2. The resulting solution was mixed well, followed by addition of a requisite volume of testing species sample solution. The final volume of the reaction solution was adjusted to 4 mL with 50 mM PBS buffer (pH 7.4). After mixing and then standing for 10 min at room temperature, a 4-mL portion of the reaction solution was transferred into a 1-cm quartz cell to measure fluorescence with λex=380 nm (for SSP1) or 482 nm (SSP2). In the meantime, a blank solution containing no testing species sample was prepared and measured under the same conditions for comparison. All the measurements were repeated three times and data reported were averages.

HeLa cells = assay: Fluorescence imaging of H2S2 in HeLa cells; format: cell-based; conditions: SSP2 50 μM 20 min
Description: (§2) FIGS. 6A-F Fluorescence images of H2S2 detection in H9c2 cells (a, b, c) and HeLa cells (d, e, f). Cells on glass coverslips were incubated with SSP2 (50 μM) for 20 min, then washed and subjected to different treatments. (a & d) controls (no Na2S2 was added); (b & e) treated with 50 μM Na2S2; (c & f) treated with 100 μM Na2S2.
(§3) H9c2 cells and HeLa cells were grown on glass-bottom culture dishes (Corning Inc.) in DMEM supplemented with 10% (v/v) FBS, penicillin (100 U/mL) and streptomycin (100 μg/mL) at 37° C. under a humidified atmosphere containing 5% CO2. Before use, the adherent cells were washed one time with FBS-free DMEM. For intracellular H2S2 imaging, the cells were incubated with 50 μM SSP2 in FBS-free DMEM (containing 200 μM CTAB) at 37° C. for 20 min. After removal of excess probe and washed with PBS (pH 7.4), the cells were incubated with 50 or 100 uM Na2S2 for 30 min in PBS buffer (pH 7.4, containing 500 μM CTAB). Cell imaging was carried out after washing the cells three times with PBS (pH 7.4).

H9c2 cells = assay: Fluorescence imaging of H2S2 in H9c2 cells; format: cell-based; conditions: SSP2 50 μM 20 min
Description: as §2, §3

[6] = then Na2S2 (50 or 100 μM) for 30 min

SMILES | quantum efficiency of standard [1] | fluorescence intensity increase [2] [folds] | fluorescence quantum yield (Φ) [3] | fluorescence response (enhancement F/F0) [4] | hydrolytic stability at basic pH [5] | cell fluorescence at 100 μM versus 50 μM Na2S2 (HeLa cells; Na2S2 30 min) | cell fluorescence after Na2S2 treatment (HeLa cells; [6]) | cell fluorescence without Na2S2 (HeLa cells; washed, no Na2S2) | cell fluorescence at 100 μM versus 50 μM Na2S2 (H9c2 cells; Na2S2 30 min) | cell fluorescence after Na2S2 treatment (H9c2 cells; [6]) | cell fluorescence without Na2S2 (H9c2 cells; washed, no Na2S2)
O=c1ccc2ccc(O)cc2o1 [7-hydroxycoumarin] | 0.76 | – | – | – | – | – | – | – | – | – | –
O=C(Oc1ccc2ccc(=O)oc2c1)c1ccccc1S [SSP1] | – | 25 | 0.06 | 26˜33 folds | above pH 8, SSP1 undergoes small amount of hydrolysis | – | – | – | – | – | –
COc1ccc2c(c1)Oc1cc(OC(=O)c3ccccc3S)ccc1C21OC(=O)c2ccccc21 (stereo not drawn) [SSP2] | – | 50 | 0.05 | 50˜60 folds | remains stable up to pH 9 | obviously stronger fluorescence | strong fluorescence | No significant fluorescent cells | obviously stronger fluorescence | strong fluorescence | No significant fluorescent cells
